Data set [1] can be described thus: pH of KSA / KASA formulas. The format is physicochemical. On the procedure: In 50 ml water, 37 gms KOH are mixed with 76 gms SA. […] Administration is by gradual ingestion by sipping. A much higher dose of 2 gm KSA can be administered as needed using two 1 gm doses separated by an interval of time so that the doses overlap closely.
An example of a topical KSA is as follows: Using the supersaturated KSA formula of Example 1, a topical formula was prepared as follows: 225 ml Aloe Vera Gel was mixed with 2½ ml liquid castile soap (Dr. Bronner's was used), and 2½ ml vegetable glycerin. Dry ingredients of 900 mg citric acid, 600 mg guar gum and 14 gm dehydrated KSA are separately mixed.

The conditions of data set [2]: dimethyl isosorbate as solvent; cited from earlier work.
[3] abbreviates: 1 gm dehydrated product mixed with 225 ml water.

Consider `O=C(O)c1ccccc1O.[K]` [KSA, potassium salicylic acid], for which the pH in data set [1] (setting [3]) is on record as 8.90; in data set [1] (concentrated solution as prepared, before dehydration), 12.0-13.0.

On to `CC(=O)Oc1ccccc1C(=O)O` [ASA, acetylsalicylic acid], for which, in data set [2], the “concentration of ASA achieved in solution” value was 280 mg of ASA/ml.

`CC(=O)Oc1ccccc1C(=O)[O-].[K+]` [KASA, potassium acetylsalicyclic acid] displayed a pH in data set [1] (setting [3]) of 8.42.

(Values after patent USRE38576E1, “Stabilized aspirin compositions and method of preparation for oral and topical use” (priority 2000, dated 2004).)
